The values that follow come from ChEMBL document CHEMBL1134981, “Pyrrolidine and piperidine analogues of SC-57461A as potent, orally active inhibitors of leukotriene A(4) hydrolase” (Bioorg Med Chem Lett, 2002).

The species entered for one test is Homo sapiens. Briefly: Inhibition of leukotriene B4 production in human whole blood. In kind it is functional.
Test [1] relates to Mus musculus. Nature of the test: Ex vivo inhibition of LTB4 production in mouse whole blood at 10 mg/kg. In kind it is functional.
Test [2] is filed under the species Mus musculus. Nature of the test: Oral potency for Ex vivo inhibition of LTB4 production in mouse whole blood. Format: functional.
For test [3], the target named is T1, Leukotriene A-4 hydrolase (Homo sapiens, UniProt P09960).
T1 sequence (P09960 whole entry): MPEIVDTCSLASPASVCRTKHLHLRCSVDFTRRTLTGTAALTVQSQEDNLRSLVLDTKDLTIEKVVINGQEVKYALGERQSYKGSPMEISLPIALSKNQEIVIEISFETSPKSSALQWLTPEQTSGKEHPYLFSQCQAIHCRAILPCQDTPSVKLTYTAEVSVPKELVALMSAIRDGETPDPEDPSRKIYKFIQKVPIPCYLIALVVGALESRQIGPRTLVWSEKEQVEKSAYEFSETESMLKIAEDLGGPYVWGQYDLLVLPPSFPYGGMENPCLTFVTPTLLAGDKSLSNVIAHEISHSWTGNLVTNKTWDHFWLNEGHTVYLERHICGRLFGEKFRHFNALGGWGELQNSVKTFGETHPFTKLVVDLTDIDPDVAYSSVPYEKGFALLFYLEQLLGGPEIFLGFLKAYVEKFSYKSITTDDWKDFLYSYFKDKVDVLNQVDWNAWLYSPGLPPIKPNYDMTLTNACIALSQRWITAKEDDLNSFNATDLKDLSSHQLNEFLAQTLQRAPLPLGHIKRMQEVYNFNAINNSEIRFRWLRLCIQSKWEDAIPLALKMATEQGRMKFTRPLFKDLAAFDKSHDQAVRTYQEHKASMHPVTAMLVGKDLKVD
Briefly: Inhibition of leukotriene A4 hydrolase in human recombinant assay.

For test [4], the species on record is Mus musculus. Briefly: Ex vivo inhibition of LTB4 production in mouse whole blood. Format: functional.
For test [5], the species on record is Rattus norvegicus. Briefly: The compound was tested for oral efficacy in rat reversed passive dermal Arthus model; 3-10. Format: functional.
For a further test, the system named is Rhesus monkey. Nature of the test: The compound showed excellent potency when dosed orally, inhibiting the production of Leukotriene B4. In kind it is functional, Cercopithecidae. Conditions: Macaca mulatta, po.
Test [6] deals with Rattus norvegicus. Nature of the test: The compound was orally efficacious in rat peritoneal Leukotriene B4 production. In kind it is functional. As to conditions: po.

Take `COC(=O)C1CCN(CCOc2ccc(Cc3ccccc3)cc2)C1` (configuration not stated): the IC50 (in general, the point on the concentration scale where inhibition reaches its midpoint) in the test listed under Homo sapiens was found to be 230 nM.
On to `c1ccc(Cc2ccc(OCCN3CCCCC3)cc2)cc1`, for which testing at 10 mg/kg with Mus musculus [1] (Mus musculus, Blood) gave an inhibition in vivo of 8%.
In the test filed under Homo sapiens, `CN(CCCOc1ccc(Cc2ccccc2)cc1)CCC(=O)O` registered an IC50 of 49 nM. Besides, the inhibition in vivo (usually the change of the read-out against control, counted positive when it falls) at 10 mg/kg in the test with Mus musculus [1] (Mus musculus, Blood) is > 98%. The ED90 in the test filed under Mus musculus [2] turned out to be 1 mg/kg.
Consider `CCOC(=O)C1CCCN(CCOc2ccc(Cc3ccccc3)cc2)C1` (configuration not stated), for which the results for the IC50 (in the test filed under Homo sapiens; in test [3]) were 1650 nM and > 3000 nM, respectively.
Regarding `NC(=O)NC1CCN(CCOc2ccc(Cc3ccccc3)cc2)C1` (configuration not stated), the IC50 in the test filed under Homo sapiens came to 350 nM.
Take `OCC1CCN(CCOc2ccc(Cc3ccccc3)cc2)CC1`: the IC50 in the test filed under Homo sapiens was determined as 580 nM; in test [3], 52 nM. Besides, the inhibition in vivo at 10 mg/kg in the test with Mus musculus [1] (Mus musculus, Blood) was determined as 85%.
`CC(=O)NC1CCN(CCOc2ccc(Cc3ccccc3)cc2)CC1` displayed an IC50 in the test listed under Homo sapiens of 180 nM.
As for `COC(=O)C1CC2CC1CN2CCOc1ccc(Cc2ccccc2)cc1` (configuration not stated), the figures for the IC50 (in the test filed under Homo sapiens; in test [3]) were 200 nM and 47 nM, respectively. In addition, the inhibition in vivo at 10 mg/kg with Mus musculus [1] (Mus musculus, Blood) was found to be 50%.
Regarding `CNC(=O)C1CCN(CCOc2ccc(Cc3ccccc3)cc2)CC1`, in the test listed under Homo sapiens, the IC50 turned out to be 130 nM. Moreover, the inhibition in vivo at 10 mg/kg with Mus musculus [1] (Mus musculus, Blood) is 92%.
For `O=C(O)C1CCN(CCOc2ccc(Cc3ccccc3)cc2)CC1`, the results for the IC50 (in the test listed under Homo sapiens; in test [3]) were 290 nM and 280 nM, respectively. Also, in the test on Mus musculus [1], 10 mg/kg produced 80% inhibition in vivo.
Consider `NC(=O)N1CCN(CCOc2ccc(Cc3ccccc3)cc2)CC1`, for which, in the test listed under Homo sapiens, the IC50 turned out to be 2400 nM.
In the case of `NC(=O)C1CCN(CCOc2ccc(Cc3ccccc3)cc2)CC1`, the IC50 was 640 nM in the test listed under Homo sapiens and 130 nM in test [3]. Moreover, the inhibition in vivo at 10 mg/kg with Mus musculus [1] (Mus musculus, Blood) amounted to 95%. In addition, the ED90 in the test filed under Mus musculus [2] turned out to be 3 mg/kg.
On to `OC1CCN(CCOc2ccc(Cc3ccccc3)cc2)C1` (configuration not stated), for which the IC50 in test [3] came to 30 nM. Testing at 10 mg/kg with Mus musculus [1] (Mus musculus, Blood) gave an inhibition in vivo of 50%.
The compound `COC(=O)CC1CCN(CCOc2ccc(Cc3ccccc3)cc2)C1` (configuration not stated) returned an IC50 in the test filed under Homo sapiens of 240 nM. For the same compound, in the test on Mus musculus [1] (Mus musculus, Blood), the inhibition in vivo at 10 mg/kg was determined as 75%. In the test listed under Mus musculus [2], this compound displayed an ED90 of 10 mg/kg.
`CC(=O)NC1CCN(CCOc2ccc(Cc3ccccc3)cc2)C1` (configuration not stated): half-maximal inhibition in the test filed under Homo sapiens (IC50) required 420 nM. Further, the inhibition in vivo at 10 mg/kg in the test on Mus musculus [1] (Mus musculus, Blood) was determined as 22%.
For `CCOC(=O)CNC(=O)C1CCN(CCOc2ccc(Cc3ccccc3)cc2)CC1`, the IC50 amounted to 700 nM in the test listed under Homo sapiens and 110 nM in test [3]. The compound further registered an inhibition in vivo at 10 mg/kg in the test on Mus musculus [1] (Mus musculus, Blood) of 91%. For the same compound, in the test filed under Mus musculus [2], the ED90 was determined as 3 mg/kg.
In the test filed under Homo sapiens, `NC(=O)NC1CCN(CCOc2ccc(Cc3ccccc3)cc2)CC1` returned an IC50 of 440 nM.
The compound `COC(=O)[C@@H]1CCCN1CCOc1ccc(Cc2ccccc2)cc1` gave an IC50 in the test filed under Homo sapiens of 1860 nM. Besides, in the test with Mus musculus [1] (Mus musculus, Blood), the inhibition in vivo at 10 mg/kg was determined as 0%.
Compound `NC(=O)CC1CCN(CCOc2ccc(Cc3ccccc3)cc2)C1` (configuration not stated) registered a concentration for half-maximal inhibition (IC50) in the test listed under Homo sapiens of 400 nM. Besides, 10 mg/kg produced 4% inhibition in vivo in the test with Mus musculus [1] (Mus musculus, Blood).
Regarding `NC(=O)C1CCN(CCOc2ccc(Cc3ccccc3)cc2)C1` (configuration not stated), it took 360 nM to reach half-maximal inhibition in the test filed under Homo sapiens (IC50). The compound further displayed an inhibition in vivo at 10 mg/kg in the test on Mus musculus [1] (Mus musculus, Blood) of 60%.
In the test on Mus musculus [1] (Mus musculus, Blood), `N#CC1CCN(CCOc2ccc(Cc3ccccc3)cc2)CC1` gave an inhibition in vivo at 10 mg/kg of 56%.
Regarding `c1ccc(Cc2ccc(OCCN3CCCC3)cc2)cc1`, in the test filed under Homo sapiens, the half-inhibitory concentration (IC50) worked out at 120 nM.
Take `CCOC(=O)C1CCN(CCOc2ccc(Cc3ccccc3)cc2)CC1`: the IC50 in the test filed under Homo sapiens was 820 nM; in test [3], 1800 nM. In addition, the ED90 in the test listed under Mus musculus [4] is 3 mg/kg; in the test filed under Rattus norvegicus [5], 3 mg/kg; in the test with Rhesus monkey, < 10 mg/kg; with Rattus norvegicus [6], 30 mg/kg. Besides, the 50% effect level with Rattus norvegicus [6] (ED50) was put at a dose of 3 mg/kg.
In turn, `NC1CCN(CCOc2ccc(Cc3ccccc3)cc2)C1` (configuration not stated) had an IC50 in the test listed under Homo sapiens of 290 nM.
As for `c1ccc(Cc2ccc(OCCN3CCC(c4nnn[nH]4)CC3)cc2)cc1`, the ED90 in the test filed under Mus musculus [2] came to 3 mg/kg.
Consider `COC(=O)CC1CC2CC1CN2CCOc1ccc(Cc2ccccc2)cc1` (stereo in doubt; 26), for which the inhibition in vivo at 10 mg/kg in the test with Mus musculus [1] (Mus musculus, Blood) turned out to be 80%. Also, the ED90 in the test listed under Mus musculus [2] is ≥ 10 mg/kg.
Regarding `COC(=O)CC1CC2CC1CN2CCOc1ccc(Cc2ccccc2)cc1` (stereo in doubt; 27), the Inhibition (commonly the relative decrease from the control value, in per cent) with Mus musculus [1] (10 mg/kg) is 70%.
